Measured values reported in US20110009446A1, “OLIGOMER-GUANIDINE CLASS CONJUGATES” (Nektar Therapeutics, priority 2008, published 2011).
Where a name gives a salt, the structure may show the parent alone.

Tests used:
[1] = target: T1, noradrenalin transporters (Rattus norvegicus, UniProt Q9WTR4); test: Radioligand binding assay ([3H]-nisoxetine competition) in rat forebrain membranes; details: 1.0 nM [3H]-nisoxetine, 0-4° C., 4 hours, Cheng Prusoff correction
T1 construct: membranes prepared from rat forebrain which express noradrenalin transporters; from tissue; host or cells: rat forebrain membranes
T1 sequence (Q9WTR4 1-597): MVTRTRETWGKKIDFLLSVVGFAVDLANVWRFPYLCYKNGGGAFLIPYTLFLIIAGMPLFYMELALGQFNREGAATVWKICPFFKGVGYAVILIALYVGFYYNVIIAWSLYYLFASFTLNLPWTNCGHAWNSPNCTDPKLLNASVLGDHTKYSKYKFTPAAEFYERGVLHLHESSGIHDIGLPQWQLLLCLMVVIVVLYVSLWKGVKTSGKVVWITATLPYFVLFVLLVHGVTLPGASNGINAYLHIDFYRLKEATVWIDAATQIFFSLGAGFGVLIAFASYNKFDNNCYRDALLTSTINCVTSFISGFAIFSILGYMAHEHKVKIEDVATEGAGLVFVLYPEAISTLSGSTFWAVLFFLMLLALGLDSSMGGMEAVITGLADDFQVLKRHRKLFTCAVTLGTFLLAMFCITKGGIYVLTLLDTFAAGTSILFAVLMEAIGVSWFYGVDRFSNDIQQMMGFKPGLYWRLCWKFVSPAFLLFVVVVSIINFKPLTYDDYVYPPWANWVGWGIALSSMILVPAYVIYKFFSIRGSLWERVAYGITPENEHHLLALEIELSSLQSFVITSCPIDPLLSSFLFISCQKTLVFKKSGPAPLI
Method: Competition binding experiments are conducted by incubating membranes with 1.0 nM of radioligand, [^3H]-nisoxetine, in the presence of variable concentrations (0.1 nM to 3 μM and 1 nM to 30 μM for parent and PEG conjugates, respectively) of test compounds. The reaction is carried out in 50 mM Tris-HCl (pH 7.4), containing 300 mM NaCl and 5 mM KCl at 0-4° C. for 4 hours. Following incubations, the membranes are washed, and the bound radioactivity is measured. Non-specific binding is measured in the presence of excess desipramine (1.0 μM) as the cold ligand; this value is subtracted from the total binding to yield the specific binding at each test compound concentration.
Ki is obtained using the Cheng Prusoff correction using experimental Kd values that are previously determined under these assay conditions.

[2] = tested on: visceral pain in mice (CD-1 male mice); test: Analgesic assay (acetic acid-induced writhing); format: in vivo
Method: An analgesic assay was used to determine whether a given compound can reduce and/or prevent visceral pain in mice. The assay utilized CD-1 male mice (5-8 mice per group), each mouse being approximately 0.015-0.030 kg on the study day. Mice were treated according to standard protocols. Mice were given a single “pretreatment” dose of a compound lacking covalent attachment of a water-soluble, non-peptidic oligomer, a corresponding version comprising the compound covalently attached to a water-soluble, non-peptidic oligomer, or control solution (IV, SC, IP or orally) thirty minutes prior to the administration of the acetic acid solution. The animal was given an IP injection of an irritant (acetic acid) that induces “writhing” which may include: contractions of the abdomen, twisting and turning of the trunk, arching of the back and the extension of the hindlimbs. Mice were given a single IP injection (0.1 mL/10 g bodyweight) of a 0.5% acetic acid solution. After the injection the animals were returned to their observation enclosure and their behavior was observed. Contractions were counted between 0 and 20 minutes after the injection. The animals were used once. Each tested article was dosed at 1, 3 and 10 mg/kg (n=5 animals/dose).

[3] = 10 mg/kg, 5 animals, acetic acid writhing

| Structure (SMILES) | Ki [1] [nM] | Mean (contractions/writhing counted) ([2]; 10 mg/kg single pretreatment dose 30 min before IP 0.5% acetic acid, contractions counted 0-20 min, CD-1 male mice) | No. of Responders [2, 3] | Responding Fraction [2, 3] | % Reduction in writhing ([2]; 10 mg/kg, CD-1 male mice, acetic acid writhing) [%] |
| --- | --- | --- | --- | --- | --- |
| N=C(N)N1CCc2ccccc2C1 [Debrisoquine sulfate, debrisoquine sulfate] | 594 |  |  |  |  |
| N=C(N)N1CCc2ccccc2C1 [Debrisoquine] |  | 49.6 | 0 | 0.00 | 10.6 |
